Laboratory results as given in US20220313873A1, “COLORED BIOLOGIC WOUND TREATMENT PROVIDING HEALING PROGRESS MONITORING” (KERECIS HF, priority 2021, published 2022).

Experiments:
[1] = tested on: cells; test: Preliminary cytotoxicity tests; details: preliminary tests by the inventors
[2] = Stability of coloring agents in decellularization (Decell) solution; type: physicochemical; details: 0.5 mL of 1% w/v color solution in 50 mL Decell solution
Description: A first set of experiments were conducted to determine the stability of various coloring agents within a decellularization solution (termed herein as “Decell solution”) used in the processing/manufacturing of Kerecis™ fish-skin-derived cellular scaffold products, which is made from the minimally processed skin of wild-caught Atlantic cod, as described in U.S. Pat. No. 8,613,957.
The Decell solution was prepared in accordance with EBL M222. 50 mL of the Decell solution was aliquoted into each of 7 separate plastic tubes securable with a respective lid. A first tube included only the Decell solution, acting as a control. A 0.5 mL aliquot of each of the 6 prepared color solutions was separately added to a corresponding tube containing 50 mL of Decell solution. Any reaction or visible change of the mixture was monitored over time.
The solutions in respective tubes with the respective coloring agents were monitored and documented by photographs at the start of the experiment, after 30 minutes, and after 24 hours of incubation.

Compound	cytotoxicity [1]	color of the Decell solution ([2]; after 24 hours)	fading of color in Decell solution ([2]; first 20 minutes)
CN(C)c1ccc(C(=C2C=CC(=[N+](C)C)C=C2)c2ccc(N(C)C)cc2)cc1 [GV, gentian violet]	did not cause any cytotoxicity concern		
CN(C)c1ccc2nc3ccc(N(C)C)cc3[s+]c2c1.[Cl-] [Methylene Blue, methylene blue]	did not cause any cytotoxicity concern	had all turned white or nearly white except the Decell solution with the added Methylene Blue	notable exception
